Measured values taken from patent US7790896B2, “RNA-selective probes for live cell imaging of nuclear structure and function” (New York University, priority 2006, dated 2010).

What was measured:
[1] = tested on: RNA, 16S- and 23S-ribosomal from E. coli; test: Dye concentration dependency titration with RNA; assay type: binding; settings: dye 0.15 μM to 10 μM, RNA 50 μg/mL
Description: (§1) Samples containing 50 μg/mL RNA in TE buffer with an increasing concentration of compound from 0.15 μM to 10 μM. Shown here is the intensity increase recorded at the emission λmax wavelength of each dye. […] The samples contain fixed concentration of dyes (E36: 5 μM; E144: 10 μM; F22: 10 μM) in TE buffer with an increasing concentration of RNA or DNA from 0.19 μg/mL to 200 μg/mL. Data points were in duplicated in individual experiments, and error bars represent standard deviation.
(§2) The fluorescence spectra data in the primary screening and selected dyes titration assay study was obtained by Gemini XS plate reader. RNA solution was prepared right before the assay experiments to avoid possible degradation and contamination. In the primary screening, 1 mg/mL RNA (type VI from torula yeast) buffer solution was used. Point scans were carried out first using five Ex/Em point sets ([…], 400/500, 450/550, 500/600, 550/650 nm). Spectra scans were then carried out for the selected dyes. Excitation wavelengths were set at 350 nm, 400 nm, 450 nm, 500 nm, and 550 nm and the emission wavelengths were scanned. RNA (16S- and 23S-ribosomal from E. coli) and DNA (salmon testes) titration experiments and quantum yield/extinction coefficient determination for the three best dyes were carried out by the plate reader as well. Excitation λmax obtained from F-2500 Hitachi Fluorophotometer was used. Absorbance wavelength was determined by SpectraMax Plus^384 absorbance plate reader. […] was chosen as standard and 480 nm was used as excitation wavelength in the scanning for quantum yield determination.
The RNA binding characteristics of these dyes was further examined by determining if the fluorescent intensity was concentration dependent (FIG. 3A). […] Moreover, a slight emission Ma red shift was observed (total 8 nm) with the increasing concentration of E36.

[2] = tested on: Fixed-permeabilized Hela cells; test: DNase and RNase digest test; assay type: cell-based, human; settings: dye 50 μM, 2 hours; for Fluorescence after RNase digest: 25 μg/mL DNase-Free RNase; for Fluorescence after DNase digest: 30 μg/mL DNase
Description: Cells were first fixed using cold (−4° C.) pure methanol for 1 minute at ambient temperature. The cell membrane was then permeabilized by immersion in 1% Triton X-100 for 2 minutes. After rinsing with PBS twice, 100 μL of 50 μM dye PBS solution was added to three adjacent wells. Cells were then incubated in this dye PBS solution for 15 minutes in ambient temperature before being rinsed with clean PBS twice. 100 μL clean PBS (as control experiment), 30 μg/mL DNase (Sigma), or 25 μg/mL DNase-Free RNase (GE) was added to the three adjacent wells and incubated at 37° C. in 5% CO2 for 2 hours. Cells were rinsed with clean PBS twice before imaging. For each dye test, the fluorescent images were obtained using equal exposure time for control, DNase and RNase experiments. DAPI (10 μM) in PBS and SYTO®RNASelect (5 μM) in PBS solution were used for dual staining experiments. Duplicate experiments have been tested.
To further confirm that the compounds selectively bind RNA, a deoxyribonuclease (DNase) and ribonuclease (RNase) digest test was performed. In DNase digest, only the DNAs in the cell would be hydrolyzed. By contrast, in RNase digest, only RNAs would be hydrolyzed. Fixed-permeabilized Hela cells were used in this experiment and DAPI and SYTO®RNASelect were used as control dyes (FIG. 6). […] Still, its higher RNA-selective binding in live cell might be due to the complicated in vivo live cell environment, which may preferably direct this dye to nucleoli.

[3] = tested on: RNA (16S- and 23S-ribosomal from E. coli) vs. DNA (salmon testes); test: RNA vs. DNA selectivity titration in solution; assay type: binding; settings: E36 5 μM, E144 10 μM, F22 10 μM; nucleic acid 0.195 to 200 μg/mL
Description: as §1, §2
A set of solution assay experiments were then carried out to investigate the dyes' selectivity to bind RNA vs. DNA in vitro. With a fixed concentration of dye (E36 5 μM, E144 10 μM, and F22 10 μM), the fluorescent intensity at various nucleic acid concentrations (0.195 μg/mL to 200 μg/mL) was determined at the appropriate emission λmax wavelength. SYTO®RNASelect (5 μM) and Hoechst 33258 (5 μM) dyes were used as standards for RNA selective and DNA selective dyes (FIG. 3B).

[4] = tested on: Hela, A549, 3T3, and 3T3-L1; test: Optimization of working concentration and imaging properties, live cell staining; assay type: cell-based, human, mouse; settings: 20, 10, 5 and 1 μM tested in four cell lines
Description: (§3) All cell staining imaging followed the same procedure. Generally, dyes in dry state were first dissolved in DMSO to obtain the stock solution. The stock solutions were then added directly to the cell culture wells to reach the desired concentration. Total DMSO was lower than 0.1%. After adding dyes, cells were incubated at 37° C. in 5% CO2 for 25 minutes. The medium was then removed and cells were rinsed with fresh medium twice. The cells were then imaged at ambient temperature in the medium. Exposure time was kept less than 5 seconds and adjusted to each dye.
In fluorescence microscopic imaging studies, it is always desirable to use as little dye as possible to stain organelles in order to maximize specificity and minimize dye toxicity and cell death. To determine the lowest working concentration of each dye, four different concentrations (20 μM, 10 μM, 5 μM, and 1 μM) were tested in four cell lines (Hela, A549, 3T3, and 3T3-L1). Dyes E36, E144, and F112 were imaged using FITC channel, and F22 was imaged using Cy3 channel. Generally, a quality fluorescence signal for each dye was produced using a concentration of 5 μM for E36, E144, and F22 and 10 μM for F112 (Table 5). It was interesting to observe that compound F22 was brighter in 3T3 cells, and a concentration of 1 μM was sufficient for a clear image (FIG. 4). […] Little photobleaching and no obvious cell morphology or viability changes were observed during the tests.

[5] = tested on: RNA (Type VI from torula yeast); test: In vitro solution assay (primary screening): fluorescent emission fold change upon binding to RNA; settings: dye 10 μM, RNA 500 μg/mL in TE buffer
Description: as §2
The screening strategy used in this study is illustrated in FIG. 2. Both in vitro RNA assays and live cell imaging methods were utilized in the primary screening of the dye library. Selective binding of the dye to RNA in solution was the primary criterion for selecting lead compounds for subsequent bioimaging studies, Herein, the library dyes' fluorescent emission intensity fold change upon binding to RNA was measured in solution. Dyes showing five-fold or higher emission changes in the presence of RNA were selected (Table 3). Note the dyes listed are identified by the building blocks I and II from Table 2. For example, A4 is the product made by reacting compound A from the list of Building block I and compound 4 from the list of Building block II.

3T3 cells = test: Live cell staining working concentration in 3T3 cells; assay type: cell-based, mouse
Description: as §3
In fluorescence microscopic imaging studies, it is always desirable to use as little dye as possible to stain organelles in order to maximize specificity and minimize dye toxicity and cell death. To determine the lowest working concentration of each dye, four different concentrations (20 μM, 10 μM, 5 μM, and 1 μM) were tested in four cell lines (Hela, A549, 3T3, and 3T3-L1). Dyes E36, E144, and F112 were imaged using FITC channel, and F22 was imaged using Cy3 channel. Generally, a quality fluorescence signal for each dye was produced using a concentration of 5 μM for E36, E144, and F22 and 10 μM for F112 (Table 5). It was interesting to observe that compound F22 was brighter in 3T3 cells, and a concentration of 1 μM was sufficient for a clear image (FIG. 4). […]

SMILES	Emission λmax red shift with increasing dye concentration [1]	Fluorescent intensity vs dye concentration (titration curve) [1]	Fluorescence after RNase digest [2]	Fluorescence after DNase digest [2]	Fluorescent intensity response to RNA vs. DNA [3]	Optimum Concentration for live cell imaging [4] [µM]	Em(nm) [5] [nm]	Ex(nm) [5] [nm]	Fold (fluorescent emission fold changes to RNA) [5]	Concentration sufficient for a clear image (3T3 cells) [µM]
COc1cc(OC)c(/C=C/c2ccc3ccccc3[n+]2C)c(OC)c1 [Dye E144]	did not show obvious wavelength shift	almost linear curve	not detectable	not detectable	almost same binding affinity to both RNA and DNA	5	540	450	5	–
C[n+]1c(/C=C/c2c[nH]c3ccccc23)ccc2ccccc21 [Dye E36]	8 nm	evidence of saturation at high concentration	dramatically diminished	stayed almost the same	higher response to RNA than to DNA	5	–	–	–	–
COc1ccc2c(ccc(/C=C/c3ccc(N(C)C)cc3)[n+]2C)c1 [Dye F22]	did not show obvious wavelength shift	evidence of saturation at high concentration	overall decrease in intensity	nucleolar stain remained bright	higher response to RNA than to DNA	–	640	500	23	1
